Holding throughout (assay type): cell-based, human
Experiment [1] has as its system keratinocytes. Briefly: Pemphigus sera-induced cell detachment (acantholysis) of keratinocytes. Particulars: pretreatment with Z-IETD-FMK 100 μM for 30 min or NOK2 15 μg/ml, then 72 hrs sera; FIG. 12B.
Experiment [2] concerns keratinocytes. Briefly: Pemphigus sera-induced keratinocyte apoptosis, TUNEL staining. The conditions noted are these: sera pretreated with anti-FasL neutralizing antibody (2.5 mg per ml for 30 min) or Z-IETD-FMK (100 μM for 30 min); FIG. 6. The protocol: As apoptotic keratinocytes are abundantly expressed in pemphigus, we wanted to explore whether pemphigus sera are capable of inducing apoptosis in normal human keratinocytes. To this purpose, keratinocytes were plated in chamber slides and cultured in serum-free medium (KGM) up to preconfluence. Cells were then cultured in keratinocyte basal medium and treated for 48 h with the addition of 25% serum from either untreated patients or patients treated with systemic corticosteroids. Sera from healthy subjects were used as controls. Apoptosis was evaluated by TUNEL staining in situ. Approximately 100 cells were evaluated, in randomly selected fields, and the percentage of TUNEL-positive cells was counted.
FasL is one of the major triggers of the caspase-8 activated extrinsic apoptotic pathway. Therefore, we wanted to evaluate whether this pathway plays a role in pemphigus apoptosis. To this purpose, patient sera were pretreated with anti-FasL neutralizing antibody or caspase-8 inhibitor, and added to keratinocyte cultures. Keratinocytes were cultured in KGM and treated with pemphigus sera or with sera from untreated patients. Sera were pretreated with anti-FasL neutralizing antibody (2.5 mg per ml for 30 min) or caspase-8 inhibitor Z-IETD-FMK (100 μM for 30 min). Apoptosis was evaluated by TUNEL staining.

Experiment [3] relates to keratinocytes. Briefly: Pemphigus sera-induced Dsg3 cleavage and caspase-8 activation in confluent keratinocytes, Western blotting. Particulars: pretreatment with Z-IETD-FMK 100 μM for 30 min or NOK2 15 μg/ml, then 72 hrs sera; FIG. 12A. The protocol: To investigate whether the extrinsic apoptotic pathway is responsible for dsg cleavage, we pretreated confluent keratinocytes with caspase-8 inhibitor Z-IETD-FMK (100 μM for 30 min) or with anti-FasL (NOK2, 15 μg/ml)Ab. Then cells were incubated for 72 hrs with healthy or untreated pemphigus sera. Protein extracts from the culture were analyzed by Western blotting using anti-Dsg3 antibodies and anti-caspase-8 Ab. Vinculin was used as internal control. (FIG. 12A).

Results on one molecule are retold here after patent publication US9255150B2, “Remedies for pemphigus containing anti-Fas ligand antibodies” (PINCELL SRL, priority 2008, dated 2016).

Molecules are shown by their SMILES. Peptide text beside a SMILES is read from it. * marks the point of attachment. Cbz = O=C(OCc1ccccc1)*; CH2F = FC*

Take `CC[C@H](C)[C@H](NC(=O)OCc1ccccc1)C(=O)N[C@@H](CCC(=O)OC)C(=O)N[C@H](C(=O)N[C@@H](CC(=O)OC)C(=O)CF)[C@@H](C)O` [Z-IETD-FMK] (Cbz-IE(OMe)TD(OMe)-CH2F): in the experiment on keratinocytes [1], the “cell detachment (i.e. acantholysis) induced by untreated pemphigus sera” value was “prevented”. Further, the “pemphigus sera-induced keratinocyte apoptosis (TUNEL staining)” value in the experiment on keratinocytes [2] is given as “partially prevented”. Moreover, in the experiment on keratinocytes [3], the “caspase-8 activation induced by untreated pemphigus sera” value is “prevents” and the “dsg cleavage (Dsg3) induced by untreated pemphigus sera” value is “prevents”.
